Laboratory results: patent US10689354B2, “Aminoazole derivative” (Teijin Pharma Limited, priority 2015, dated 2020)

Experiments:
[1] = molecular target: T1, human androgen receptor (Homo sapiens, UniProt P10275); assay: Reporter assay of an androgen receptor responsive sequence (luciferase, transiently transfected HEK293 cells); assay type: cell-based; conditions: 24 hours incubation, relative to activity of 100 nM DHT, read-out: AR transcriptive activity (pEC50) (converted)
T1 construct: expressed in transfected cells; host or cells: HEK293
T1 sequence (P10275 1-920): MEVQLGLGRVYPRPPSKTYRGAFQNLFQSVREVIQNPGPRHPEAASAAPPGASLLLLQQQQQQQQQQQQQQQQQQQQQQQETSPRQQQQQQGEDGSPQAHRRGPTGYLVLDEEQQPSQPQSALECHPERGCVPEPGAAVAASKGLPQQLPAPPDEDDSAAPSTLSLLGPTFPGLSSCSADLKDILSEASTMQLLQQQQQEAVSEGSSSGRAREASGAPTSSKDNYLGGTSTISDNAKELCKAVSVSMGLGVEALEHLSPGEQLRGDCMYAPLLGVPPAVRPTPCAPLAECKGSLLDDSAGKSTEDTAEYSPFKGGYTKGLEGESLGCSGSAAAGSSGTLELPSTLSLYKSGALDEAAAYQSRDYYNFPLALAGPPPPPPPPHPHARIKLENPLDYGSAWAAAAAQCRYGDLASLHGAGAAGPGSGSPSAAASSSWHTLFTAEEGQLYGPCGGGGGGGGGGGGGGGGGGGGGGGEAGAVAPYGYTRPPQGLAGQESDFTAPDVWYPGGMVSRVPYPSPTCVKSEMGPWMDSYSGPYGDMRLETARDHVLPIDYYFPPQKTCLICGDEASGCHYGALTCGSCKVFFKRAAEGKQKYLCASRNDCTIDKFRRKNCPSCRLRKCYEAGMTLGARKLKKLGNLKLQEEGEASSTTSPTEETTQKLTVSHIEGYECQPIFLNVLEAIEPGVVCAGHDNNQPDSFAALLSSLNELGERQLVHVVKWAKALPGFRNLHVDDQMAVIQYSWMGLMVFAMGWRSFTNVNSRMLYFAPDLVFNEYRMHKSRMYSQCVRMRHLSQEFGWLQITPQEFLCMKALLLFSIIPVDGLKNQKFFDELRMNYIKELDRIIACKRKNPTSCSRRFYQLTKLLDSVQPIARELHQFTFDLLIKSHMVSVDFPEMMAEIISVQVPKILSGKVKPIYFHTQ
Procedure, shortened: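 HEK293 cells transiently transfected for 3 h with ARE-firefly luciferase, full-length human AR and TK-Renilla plasmids, then exposed to compound for 24 h at 37 °C in 5% charcoal-treated FBS/DMEM. Dual-Glo luminescence read; pEC50 from 4-parameter fit relative to 100 nM DHT.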

[2] = molecular target: T2, androgen receptor (AR-LBD) (Rattus norvegicus, UniProt P15207); assay: Evaluation of androgen receptor affinity (PolarScreen Androgen Receptor Competitor Assay Kit, Red; fluorescence polarization); conditions: 22° C. for 5 hours, relative to binding rate of 1 μM DHT, read-out: AR affinity (pEC50) (converted)
T2 construct: 5 μL of 2×AR-LBD/Fluoromone AL Red Complex contained in the kit; purchased Invitrogen
T2 sequence (P15207 651-882 limits assumed): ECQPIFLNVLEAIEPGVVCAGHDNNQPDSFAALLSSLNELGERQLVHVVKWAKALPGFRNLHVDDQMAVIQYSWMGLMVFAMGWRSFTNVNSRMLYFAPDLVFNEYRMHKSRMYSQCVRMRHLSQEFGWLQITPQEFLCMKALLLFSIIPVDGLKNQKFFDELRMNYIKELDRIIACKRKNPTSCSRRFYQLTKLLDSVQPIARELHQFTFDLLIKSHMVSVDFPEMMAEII
Procedure, shortened: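 Fluorescence polarization read-out after 5 h at 22° C of compound with a red-fluorophore-labelled AR-LBD complex. Displacement is scaled against 1 μM DHT, and the log reciprocal of the concentration reaching half that effect gives pEC50 via four-parameter curve fitting.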

SMILES | EC50 [1] | EC50 [2]
Cc1sc(N(CCc2ccc(C(F)(F)F)cc2)Cc2ccccc2)nc1C(=O)NS(C)(=O)=O [Compound 333, 2-[benzyl-[2-[4-(trifluoromethyl)phenyl]ethyl]amino]-5-methyl-N-methylsulfonyl-thiazole-4-carboxamide] | 100 nM | 25.1 nM
Cc1sc(N(Cc2ccccc2)c2ccc(C#N)c(F)c2)nc1C(=O)NS(C)(=O)=O [Example 222, 2-(N-benzyl-4-cyano-3-fluoro-anilino)-5-methyl-N-methylsulfonyl-thiazole-4-carboxamide] | 251 nM | 200 nM
Cc1sc(N(CCc2ccc(C#N)cc2)Cc2ccc(OC(F)(F)F)cc2)nc1C(=O)NS(=O)(=O)C(F)(F)F [Compound 722, 2-[2-(4-cyanophenyl)ethyl-[[4-(trifluoromethoxy)phenyl]methyl]amino]-5-methyl-N-(trifluoromethylsulfonyl)thiazole-4-carboxamide] | > 10000 nM | 251 nM
COc1ccc(CN(c2ccc(C#N)cc2)c2nc(C(=O)NS(C)(=O)=O)c(C)s2)nn1 [Compound 516, 2-[4-cyano-N-[(6-methoxypyridazin-3-yl)methyl]anilino]-5-methyl-N-methylsulfonyl-thiazole-4-carboxamide] | 6310 nM | > 2000 nM
Cc1sc(N(CC[C@H]2CC[C@@H](O)C2)c2ccc(C#N)cc2)nc1C(=O)NS(C)(=O)=O (racemic) [Compound 436, 2-[4-cyano-N-[2-[cis-3-hydroxycyclopentyl]ethyl]anilino]-5-methyl-N-methylsulfonyl-thiazole-4-carboxamide] | 1580 nM | 501 nM
Cc1sc(N(C[C@@H]2CCCC[C@@H](O)C2)c2ccc(C#N)cc2)nc1C(=O)NS(C)(=O)=O (racemic) [Compound 474, 2-[4-cyano-N-[[trans-3-hydroxycycloheptyl]methyl]anilino]-5-methyl-N-methylsulfonyl-thiazole-4-carboxamide] | 1000 nM | 794 nM
COCCOCCCS(=O)(=O)NC(=O)c1nc(N(Cc2ccc(OC(F)(F)F)cc2)c2ccc(C#N)cc2)sc1C [Compound 540, 2-[4-cyano-N-[[4-(trifluoromethoxy)phenyl]methyl]anilino]-N-[3-(2-methoxyethoxy)propylsulfonyl]-5-methyl-thiazole-4-carboxamide] | > 10000 nM | 316 nM
Cc1sc(N(CCC2CCCCC2)Cc2ccc(Cl)cc2)nc1C(=O)NS(C)(=O)=O [Compound 728, 2-[(4-chlorophenyl)methyl-(2-cyclohexylethyl)amino]-5-methyl-N-methylsulfonyl-thiazole-4-carboxamide] | 631 nM | 39.8 nM
Cc1oc(N(Cc2ccccc2OC(F)F)c2ccc(C#N)cc2)nc1C(=O)NS(C)(=O)=O [Compound 614, 2-[4-cyano-N-[[2-(difluoromethoxy)phenyl]methyl]anilino]-5-methyl-N-methylsulfonyl-oxazole-4-carboxamide] | > 10000 nM | 200 nM
Cc1sc(N(CC[Si](C)(C)C)c2ccc(C#N)cc2)nc1C(=O)NS(C)(=O)=O [Compound 476, 2-[4-cyano-N-(2-trimethylsilylethyl)anilino]-5-methyl-N-methylsulfonyl-thiazole-4-carboxamide] | > 10000 nM | 200 nM
Cc1sc(N(CCCOCc2ccccc2)c2ccc(C#N)cc2)nc1C(=O)NS(C)(=O)=O [Compound 359, 2-[N-(3-benzyloxypropyl)-4-cyano-anilino]-5-methyl-N-methylsulfonyl-thiazole-4-carboxamide] | > 10000 nM | 126 nM
CS(=O)(=O)NC(=O)c1nc(N(Cc2ccc(C(F)(F)F)nc2)c2ccc(C#N)cc2)sc1C1CC1 [Compound 659, 2-[4-cyano-N-[[6-(trifluoromethyl)-3-pyridyl]methyl]anilino]-5-cyclopropyl-N-methylsulfonyl-thiazole-4-carboxamide] | > 10000 nM | 126 nM
Cc1oc(N(CCc2ccc(Cl)cc2)Cc2ccccc2OC(F)F)nc1C(=O)NS(C)(=O)=O [Compound 543, 2-[2-(4-chlorophenyl)ethyl-[[2-(difluoromethoxy)phenyl]methyl]amino]-5-methyl-N-methylsulfonyl-oxazole-4-carboxamide] | 1260 nM | 50.1 nM
Cc1sc(N(CCc2ccc(F)cc2)Cc2ccccc2)nc1C(=O)NS(C)(=O)=O [Compound 340, 2-[benzyl-[2-(4-fluorophenyl)ethyl]amino]-5-methyl-N-methylsulfonyl-thiazole-4-carboxamide] | 251 nM | 100 nM
Cc1sc(N(CCc2ccc(C#N)cc2)CC2CCCCC2)nc1C(=O)NS(C)(=O)=O [Compound 716, 2-[2-(4-cyanophenyl)ethyl-(cyclohexylmethyl)amino]-5-methyl-N-methylsulfonyl-thiazole-4-carboxamide] | > 10000 nM | 631 nM
Cc1sc(N(Cc2ccc(OC(F)(F)F)cc2)c2ccc(C#N)cc2)nc1C(=O)NS(=O)(=O)Cc1cccnc1 [Compound 121, 2-[4-cyano-N-[[4-(trifluoromethoxy)phenyl]methyl]anilino]-5-methyl-N-(3-pyridylmethylsulfonyl)thiazole-4-carboxamide] | 50.1 nM | 25.1 nM

Second part, the compound after the results:

EC50 [1] | EC50 [2] | SMILES
63.1 nM | 25.1 nM | Cc1sc(N(Cc2cccc(OC(F)F)c2)c2ccc(C#N)cc2)nc1C(=O)NS(C)(=O)=O [Compound 4, 2-[4-cyano-N-[[3-(difluoromethoxy)phenyl]methyl]anilino]-5-methyl-N-methylsulfonyl-thiazole-4-carboxamide]
501 nM | 251 nM | Cc1sc(N(Cc2ncc(Cl)cc2Cl)c2ccc(C#N)cc2)nc1C(=O)NS(C)(=O)=O [Example 180, 2-[4-cyano-N-[(3,5-dichloro-2-pyridyl)methyl]anilino]-5-methyl-N-methylsulfonyl-thiazole-4-carboxamide]
126 nM | 50.1 nM | Cc1sc(N(Cc2ccc(F)cc2F)c2ccc(C#N)cc2)nc1C(=O)NS(C)(=O)=O [Compound 104, 2-[4-cyano-N-[(2,4-difluorophenyl)methyl]anilino]-5-methyl-N-methylsulfonyl-thiazole-4-carboxamide]
316 nM | 100 nM | Cc1sc(N(Cc2cc(F)cc3cccnc23)c2ccc(C#N)cc2)nc1C(=O)NS(C)(=O)=O [Example 174, 2-[4-cyano-N-[(6-fluoro-8-quinolyl)methyl]anilino]-5-methyl-N-methylsulfonyl-thiazole-4-carboxamide]
25.1 nM | 50.1 nM | CS(=O)(=O)NC(=O)c1nc(N(Cc2cc3ccccc3s2)c2ccc(C#N)cc2)sc1Cl [Example 280, 2-[N-(benzothiophen-2-ylmethyl)-4-cyano-anilino]-5-chloro-N-methylsulfonyl-thiazole-4-carboxamide]
63.1 nM | 39.8 nM | Cc1sc(N(Cc2ccc(C(F)F)cc2F)c2ccc(C#N)cc2)nc1C(=O)NS(C)(=O)=O [Compound 156, 2-[4-cyano-N-[[4-(difluoromethyl)-2-fluoro-phenyl]methyl]anilino]-5-methyl-N-methylsulfonyl-thiazole-4-carboxamide]
316 nM | 63.1 nM | CS(=O)(=O)NC(=O)c1nc(N(Cc2ccccc2OC(F)F)c2ccc(C#N)cc2)sc1Cl [Example 275, 5-chloro-2-[4-cyano-N-[[2-(difluoromethoxy)phenyl]methyl]anilino]-N-methylsulfonyl-thiazole-4-carboxamide]
25.1 nM | 25.1 nM | Cc1ccc(CN(c2ccc(C#N)cc2)c2nc(C(=O)NS(C)(=O)=O)c(C)s2)cc1 [Compound 17, 2-[4-cyano-N-(p-tolylmethyl)anilino]-5-methyl-N-methylsulfonyl-thiazole-4-carboxamide]
